Earlier results in US20130338095A1, “Chemosensory Receptor Ligand-Based Therapies” (ELCELYX THERAPEUTICS, INC., priority 2010, published 2013).

Experiments:
[1] = patients with jejunostomy
[2] = bitter phytonutrients in common plant foods
GLP-1 = conditions: rats

Molecule | Taste quality [2] | further results
GLP-2: gut hormone, glucagon-like peptide 2 (HADGSFSDEMNTILDNLAARDFINWLIQTKITD; Glucagon-like peptide 2; UniProt P01275 146-178, looked up) |  | intestinal absorption of energy [1]: improve; intestinal wet weight absorption [1]: improve
O=c1c(-c2ccc(O)cc2)coc2cc(O)cc(O)c12 [Genistein] | Bitter or astringent | 
O=c1c(-c2ccc(O)cc2)coc2cc(O[C@@H]3O[C@H](CO)[C@@H](O)[C@H](O)[C@H]3O)cc(O)c12 [Genistin] | Astringent | 
C=C[C@H](O)CC(=NOS(=O)(=O)O)S[C@@H]1O[C@H](CO)[C@@H](O)[C@H](O)[C@H]1O [Progoitrin] | Bitter | 
CC1(C)O[C@H]2CC(=O)OC[C@]23[C@H]2CC[C@@](C)([C@@H](O[C@@H]4O[C@H](CO)[C@@H](O)[C@H](O)[C@H]4O)c4ccoc4)[C@@]4(O[C@@H]4C(=O)O)[C@]2(C)C(=O)C[C@@H]13 [Limonin glucoside] | Tasteless | 
O=S(=O)(O)ON=C(Cc1c[nH]c2ccccc12)S[C@@H]1O[C@H](CO)[C@@H](O)[C@H](O)[C@H]1O [Glucobrassicin] | Bitter | 
COc1ccc(-c2cc(=O)c3c(OC)c(OC)c(OC)cc3o2)cc1OC [Sinensetin] | Bitter | 
OCCN1C[C@H](O)[C@@H](O)[C@H](O)[C@H]1CO [miglitol] |  | increase in GLP-1 with administration of a DPP-IV inhibitor (GLP-1): synergistic
C[C@@H]1O[C@@H](O[C@H]2[C@H](Oc3cc(O)c4c(c3)O[C@H](c3ccc(O)cc3)CC4=O)O[C@H](CO)[C@@H](O)[C@@H]2O)[C@H](O)[C@H](O)[C@H]1O [Naringin] | Bitter | 
